# Active and inactive are the calls of the source.
# Assays:
# [1] = molecular target: T1, Ubiquitin-conjugating enzyme E2 N (Homo sapiens, UniProt P61088); type: functional;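 also: Dose-response confirmation in a TR-FRET assay detecting UBC13-driven polyubiquitin chain formation, inhibition measured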
# T1 sequence (P61088 whole entry): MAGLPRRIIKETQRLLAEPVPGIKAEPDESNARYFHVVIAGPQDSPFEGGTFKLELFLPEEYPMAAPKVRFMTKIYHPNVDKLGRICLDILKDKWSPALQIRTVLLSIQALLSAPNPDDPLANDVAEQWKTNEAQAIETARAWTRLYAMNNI
# Large T antigen = Large T antigen (Simian virus 40, UniProt P03070); type: functional, Betapolyomavirus macacae;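 also: Confirmatory-stage PubChem screen for compounds that inhibit SV40 T antigen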
# cells [2] = type: functional, cell-based
# cells [3] = type: functional, cell-based; remark: listed apart in the source
# BJ [4] = test: cytotoxicity toward BJ-TERT fibroblasts, dose response, cell-based, RAS-independent, luminescence (AID 1933); type: functional; details: Homo sapiens
# BJ [5] = test: cells; type: functional, cell-based; details: Homo sapiens
# [6] = cytotoxicity toward DRD oncogenic fibroblasts, dose response, cell-based, non-viral oncogenic, luminescence (AID 1934); type: functional; details: Homo sapiens
# Paired box protein Pax-8 = Paired box protein Pax-8 (Homo sapiens, UniProt Q06710); test: inhibitors of PAX8-driven TPO luciferase reporter, dose response, RMG-I cells, cherry-pick (AID 687027); type: functional, cell-based;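 also: luciferase reporter driven by Pax8 target thyroperoxidase promoter measured by SteadyGlo luminescence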
# [7] = HEp-2 cell cytotoxicity, dose response, cytotoxicity control for RSV inhibitor project, HTS (AID 2410); type: functional; details: human respiratory syncytial virus
# [8] = inhibitors of firefly luciferase expression or activity, dose response, H4 neuroglioma cells, luminescence (AID 1990); type: functional, cell-based
# [9] = Luminescence Cell-Based Dose Response HTS to Identify Inhibitors of 5'UTR Stem-Loop Driven Prion Protein mRNA Translation in H4 Neuroglioblastoma Cells. [Related pubchem assays: 1827 (Project Summary), 1813 (Primary HTS)]; type: functional
# [10] = inhibitors of SNCA 5'UTR-driven reporter translation, confirmation, H4 neuroglioma cells, luminescence (AID 1988); type: functional, cell-based
# [11] = growth suppression of PTEN-null colon cells, dose response, cell-based, HCT116 PTEN knockout (AID 1047); type: functional;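 also: HCT116 colon tumor cells with PTEN knocked out; cells exposed to compound for 60 hours before readout; potency for loss of cell viability measured by luminescence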
# [12] = growth suppression of beta-catenin-knockout colon cells, dose response, cell-based, HCT116, human colon tumor (AID 1045); type: functional;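 also: HCT116 colon tumor cells with beta catenin knocked out; cells exposed to compound for 60 hours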
# Cytochrome P450 3A4 = Cytochrome P450 3A4 (Homo sapiens, UniProt P08684);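 also: CYP3A4 tested as one member of a cytochrome P450 panel screen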
# cells [13] = type: functional
# [14] = molecular target: Glyceraldehyde-3-phosphate dehydrogenase (Homo sapiens, UniProt P04406)
# [15] = tested on: Streptococcus sp. 'group A'; test: growth inhibition of control SK(-) GAS strain, dose response, counter-screen for streptokinase expression inhibitor project, luminescence, kanamycin, BacTiterGlo, confirmation (AID 1900); type: functional, organism-based
# Streptokinase A = molecular target: T2, Streptokinase A (Streptococcus pyogenes serotype M1, UniProt P10520); test: S. pyogenes streptokinase expression inhibitors, potency, dose response, plasminogen activation absorbance, OD405 (AID 1914); type: functional, Streptococcus pyogenes M1 GAS;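 also: secreted streptokinase activity via plasminogen activation per viability signal from cell pellet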
# T2 sequence (P10520 whole entry): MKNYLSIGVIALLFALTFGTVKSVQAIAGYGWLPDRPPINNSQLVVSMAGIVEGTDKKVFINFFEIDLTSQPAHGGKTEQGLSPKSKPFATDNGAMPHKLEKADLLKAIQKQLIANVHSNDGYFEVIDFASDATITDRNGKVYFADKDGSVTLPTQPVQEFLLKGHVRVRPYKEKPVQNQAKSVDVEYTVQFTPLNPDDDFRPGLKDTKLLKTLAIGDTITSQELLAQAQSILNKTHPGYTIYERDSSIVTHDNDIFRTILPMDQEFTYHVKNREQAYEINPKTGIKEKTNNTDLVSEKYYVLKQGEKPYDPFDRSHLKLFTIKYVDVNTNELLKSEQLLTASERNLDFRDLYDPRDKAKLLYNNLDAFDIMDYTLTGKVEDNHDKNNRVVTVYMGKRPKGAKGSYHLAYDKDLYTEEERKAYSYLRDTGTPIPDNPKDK
# Streptococcus = test: Group A Streptococcus viability loss, dose response, counter-screen for streptokinase expression inhibitor project, luminescence, BacTiterGlo (AID 1915); type: functional, organism-based;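 also: potency for reduction of bacterial viability or growth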
# [16] = molecular target: Luciferin 4-monooxygenase (Photinus pyralis, UniProt P08659); test: firefly luciferase enzyme inhibitors, dose response, biochemical, luminescence (AID 1891)
# [17] = Luminescence Cell-Based Dose Confirmation HTS to Identify Inhibitors of Platelet Dense Granule Release. [Related pubchem assays: 1663 (Primary HTS), 1678 (Summary of Project)]; type: functional
# [18] = molecular target: T3, RNA-binding protein pos-1 (Caenorhabditis elegans, UniProt G5EF15); test: inhibitors of POS-1/mex-3 RNA binding, dose response, biochemical, fluorescence polarization (AID 1964);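 also: purified POS-1 fused to maltose binding protein made in E. coli; potency of compounds blocking POS-1 binding to fluorescent RNA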
# T3 sequence (G5EF15 whole entry): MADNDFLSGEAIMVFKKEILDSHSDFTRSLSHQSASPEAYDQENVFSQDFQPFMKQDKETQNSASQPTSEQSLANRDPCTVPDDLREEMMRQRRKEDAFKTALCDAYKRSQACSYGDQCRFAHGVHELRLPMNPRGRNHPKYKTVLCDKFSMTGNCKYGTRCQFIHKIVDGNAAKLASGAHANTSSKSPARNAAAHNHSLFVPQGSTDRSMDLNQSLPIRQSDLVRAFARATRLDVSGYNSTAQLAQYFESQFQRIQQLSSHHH
# [19] = molecular target: T4, Zinc finger protein mex-5 (Caenorhabditis elegans, UniProt Q9XUB2); test: MEX-5/TCR-2 RNA interaction inhibitors, dose response, biochemical, C. elegans, fluorescence polarization (AID 1960)
# T4 sequence (Q9XUB2 whole entry): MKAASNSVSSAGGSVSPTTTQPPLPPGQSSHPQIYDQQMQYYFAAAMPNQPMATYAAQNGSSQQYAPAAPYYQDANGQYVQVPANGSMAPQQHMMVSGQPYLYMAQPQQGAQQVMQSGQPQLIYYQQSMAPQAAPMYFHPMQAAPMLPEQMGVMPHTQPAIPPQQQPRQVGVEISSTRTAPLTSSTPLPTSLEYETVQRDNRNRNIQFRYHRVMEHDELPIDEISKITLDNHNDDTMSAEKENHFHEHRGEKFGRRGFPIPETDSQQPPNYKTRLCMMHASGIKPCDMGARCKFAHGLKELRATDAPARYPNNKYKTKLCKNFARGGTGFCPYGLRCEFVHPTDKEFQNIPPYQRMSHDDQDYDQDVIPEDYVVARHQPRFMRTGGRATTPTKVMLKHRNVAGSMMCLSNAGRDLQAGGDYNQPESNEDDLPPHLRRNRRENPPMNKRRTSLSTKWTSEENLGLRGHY
# [20] = Shn3 3'UTR reporter inhibitors, dose response, cell-based, Clone20 osteoblasts, firefly luciferase, cherry-picked (AID 624132); type: functional;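 also: firefly luciferase luminescence from reporter carrying the Shn3 3'UTR in osteoblasts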
# [21] = HepG2 cell cytotoxicity, dose response, cytotoxicity control for Shn3 inhibitor project, CellTiter-Glo, cherry-picked (AID 624134); type: functional, cell-based
# [22] = control 3'UTR Renilla luciferase suppression, dose response, counter-screen for Shn3 inhibitor project, cell-based, Clone20-Shn3RL, cherry-picked (AID 624133); type: functional
# [23] = molecular target: T5, Corticotropin-releasing factor receptor 2/Corticotropin-releasing factor-binding protein (Homo sapiens, UniProt P24387+Q13324); test: activators of CRF receptor 2 with binding protein – uHTS hits, confirmation (AID 602473); type: functional; details: read-out: EC50_Mean
# T5 sequence (Q13324 whole entry): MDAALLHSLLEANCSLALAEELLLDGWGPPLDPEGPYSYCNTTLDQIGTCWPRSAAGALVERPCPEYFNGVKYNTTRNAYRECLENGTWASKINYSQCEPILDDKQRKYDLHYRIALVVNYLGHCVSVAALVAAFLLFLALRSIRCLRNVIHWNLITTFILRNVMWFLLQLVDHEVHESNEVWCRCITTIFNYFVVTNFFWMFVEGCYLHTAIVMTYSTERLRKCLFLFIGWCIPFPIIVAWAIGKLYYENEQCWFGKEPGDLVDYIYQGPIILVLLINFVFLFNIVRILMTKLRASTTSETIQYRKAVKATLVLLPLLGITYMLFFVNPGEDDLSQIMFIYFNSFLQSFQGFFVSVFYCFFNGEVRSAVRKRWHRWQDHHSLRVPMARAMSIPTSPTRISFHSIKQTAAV
# T5 sequence (P24387 whole entry): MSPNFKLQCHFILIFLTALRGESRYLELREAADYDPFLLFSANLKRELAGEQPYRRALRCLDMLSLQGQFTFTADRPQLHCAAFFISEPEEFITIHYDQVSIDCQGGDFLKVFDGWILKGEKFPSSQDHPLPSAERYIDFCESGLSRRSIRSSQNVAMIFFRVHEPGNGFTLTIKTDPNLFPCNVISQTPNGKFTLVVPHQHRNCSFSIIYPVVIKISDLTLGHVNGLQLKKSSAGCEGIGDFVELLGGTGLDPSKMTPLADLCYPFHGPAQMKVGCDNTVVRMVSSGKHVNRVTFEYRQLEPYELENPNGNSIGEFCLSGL
# Large T antigen, sequence (P03070 whole entry): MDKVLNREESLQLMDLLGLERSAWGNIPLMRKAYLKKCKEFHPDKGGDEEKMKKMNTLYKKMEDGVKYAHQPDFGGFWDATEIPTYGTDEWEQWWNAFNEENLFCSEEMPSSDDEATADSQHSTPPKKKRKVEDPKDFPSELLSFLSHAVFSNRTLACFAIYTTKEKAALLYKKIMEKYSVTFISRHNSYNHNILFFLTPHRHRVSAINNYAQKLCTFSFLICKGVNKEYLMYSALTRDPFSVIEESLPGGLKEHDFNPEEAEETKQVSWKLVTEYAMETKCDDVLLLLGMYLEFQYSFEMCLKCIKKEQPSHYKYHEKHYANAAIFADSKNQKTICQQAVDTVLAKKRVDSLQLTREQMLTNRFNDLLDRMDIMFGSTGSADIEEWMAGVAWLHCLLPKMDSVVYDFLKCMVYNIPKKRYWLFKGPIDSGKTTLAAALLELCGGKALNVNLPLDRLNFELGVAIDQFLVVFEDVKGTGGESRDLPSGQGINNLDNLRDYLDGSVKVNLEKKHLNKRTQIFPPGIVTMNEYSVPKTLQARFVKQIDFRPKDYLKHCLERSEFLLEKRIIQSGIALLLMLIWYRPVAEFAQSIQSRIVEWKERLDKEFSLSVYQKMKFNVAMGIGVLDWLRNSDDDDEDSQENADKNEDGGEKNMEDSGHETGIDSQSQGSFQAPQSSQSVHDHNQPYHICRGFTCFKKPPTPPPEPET
# Glyceraldehyde-3-phosphate dehydrogenase, sequence (P04406 whole entry): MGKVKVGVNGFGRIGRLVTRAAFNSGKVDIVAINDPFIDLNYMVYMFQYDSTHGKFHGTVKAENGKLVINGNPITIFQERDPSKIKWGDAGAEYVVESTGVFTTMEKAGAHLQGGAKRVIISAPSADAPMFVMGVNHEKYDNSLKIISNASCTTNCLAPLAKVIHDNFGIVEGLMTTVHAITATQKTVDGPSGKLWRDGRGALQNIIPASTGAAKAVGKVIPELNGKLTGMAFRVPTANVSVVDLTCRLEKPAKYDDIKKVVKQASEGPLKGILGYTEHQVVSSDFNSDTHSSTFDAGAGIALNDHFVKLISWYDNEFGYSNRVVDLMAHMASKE
# Luciferin 4-monooxygenase, sequence (P08659 whole entry): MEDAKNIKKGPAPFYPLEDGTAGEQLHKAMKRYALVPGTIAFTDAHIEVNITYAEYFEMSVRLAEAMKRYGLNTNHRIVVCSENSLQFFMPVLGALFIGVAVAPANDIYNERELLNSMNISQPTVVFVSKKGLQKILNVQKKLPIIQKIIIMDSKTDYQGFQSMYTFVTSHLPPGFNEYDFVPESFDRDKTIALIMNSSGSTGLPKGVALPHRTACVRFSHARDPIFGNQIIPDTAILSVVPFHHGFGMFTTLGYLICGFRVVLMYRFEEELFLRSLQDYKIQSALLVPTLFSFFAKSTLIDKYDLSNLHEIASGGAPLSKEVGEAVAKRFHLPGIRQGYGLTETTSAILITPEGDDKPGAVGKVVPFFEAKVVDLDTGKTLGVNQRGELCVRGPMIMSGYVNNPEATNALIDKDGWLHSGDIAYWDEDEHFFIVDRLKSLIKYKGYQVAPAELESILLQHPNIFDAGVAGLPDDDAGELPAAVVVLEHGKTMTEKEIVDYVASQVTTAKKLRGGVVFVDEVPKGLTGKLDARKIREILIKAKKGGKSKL
# Paired box protein Pax-8, sequence (Q06710 whole entry): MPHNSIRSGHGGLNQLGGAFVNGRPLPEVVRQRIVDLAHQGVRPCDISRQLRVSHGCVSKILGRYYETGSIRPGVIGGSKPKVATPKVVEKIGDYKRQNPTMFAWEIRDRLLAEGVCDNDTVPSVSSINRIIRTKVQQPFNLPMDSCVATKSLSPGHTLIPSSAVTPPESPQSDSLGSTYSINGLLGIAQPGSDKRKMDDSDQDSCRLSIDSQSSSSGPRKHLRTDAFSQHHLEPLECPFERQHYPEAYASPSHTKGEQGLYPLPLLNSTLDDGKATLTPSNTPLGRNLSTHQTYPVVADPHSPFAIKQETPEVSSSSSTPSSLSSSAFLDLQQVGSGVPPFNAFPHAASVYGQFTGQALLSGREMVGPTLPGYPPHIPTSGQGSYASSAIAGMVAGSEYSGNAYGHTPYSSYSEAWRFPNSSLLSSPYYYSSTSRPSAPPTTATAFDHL
# Cytochrome P450 3A4, sequence (P08684 whole entry): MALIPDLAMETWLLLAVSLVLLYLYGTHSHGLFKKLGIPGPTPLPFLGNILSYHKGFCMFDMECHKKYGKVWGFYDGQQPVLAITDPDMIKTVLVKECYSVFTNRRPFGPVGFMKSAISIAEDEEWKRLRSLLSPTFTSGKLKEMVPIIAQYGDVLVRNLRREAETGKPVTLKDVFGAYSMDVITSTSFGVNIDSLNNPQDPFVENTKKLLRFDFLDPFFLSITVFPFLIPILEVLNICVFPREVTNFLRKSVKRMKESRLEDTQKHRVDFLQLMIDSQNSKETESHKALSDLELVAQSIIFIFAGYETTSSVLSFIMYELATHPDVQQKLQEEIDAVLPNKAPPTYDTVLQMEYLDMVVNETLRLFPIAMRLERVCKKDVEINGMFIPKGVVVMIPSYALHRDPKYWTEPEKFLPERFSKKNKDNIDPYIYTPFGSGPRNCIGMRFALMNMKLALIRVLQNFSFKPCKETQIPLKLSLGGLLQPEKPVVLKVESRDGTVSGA
structure (smiles),measurement,setting,value
COc1ccc(C[C@H]2CN3C(=NC[C@@H]3Cc3ccccc3)N2CCNC(=O)c2ccc(C)c(Br)c2)cc1,IC50,[1],> 20 µM (inactive)
COc1ccc(/C=N/NC(=O)CSCc2ccc([N+](=O)[O-])cc2)cc1OC,IC50,[1],> 20 µM (inactive)
CCN(CC)c1ccc(NC(=O)COC(=O)c2ccc3ccccc3n2)cc1,IC50,Large T antigen,48.2 µM (active)
COc1cc(/C=C2\C(=N)N3N=C(CC(=O)N4CCCCC4)SC3=NC2=O)ccc1O,IC50,Large T antigen,22.5 µM (active)
Cc1ccc(N(C)S(=O)(=O)c2ccc(-c3cc(C)no3)s2)cc1,EC50,cells [2],> 350 µM (not active)
same,EC50,cells [3],> 350 µM (not active)
COc1ccc(C(=O)NN(C)c2nc(C(F)(F)F)nc3ccccc23)cc1,EC50,BJ [4],< 0.12 µM (active)
same,EC50,BJ [5],0.45 µM (active)
same,EC50,[6],< 0.12 µM (active)
same,AC50,Paired box protein Pax-8,1.79 µM (active)
Cc1ccc(-c2nn(-c3ccccc3)cc2CSC(=N)N)cc1,CC50,[7],14.9 µM (active)
same,EC50,[8],> 120 µM (not active)
same,EC50,[9],> 120 µM (not active)
same,EC50,[10],> 120 µM (not active)
same,EC50,[11],17.1 µM (active)
same,EC50,[12],17.4 µM (active)
same,IC50,[1],> 20 µM (inactive)
same,AC50,Cytochrome P450 3A4,39.8 µM (inconclusive)
CC(C)C1Cc2c(sc3c2c(=O)n(-c2ccccc2)c2n[nH]c(=S)n32)CO1 (centres undefined),IC50,Large T antigen,29.5 µM (active)
C/C(=N\NC(=O)c1c(Br)c(C)nn1C)c1ccc(NC(=O)C(C)Oc2ccc(Cl)cc2C)cc1 (centres undefined),EC50,[11],11 µM (active)
same,EC50,[12],15.1 µM (active)
Cc1cc(NC(=O)COC(=O)COc2ccc(C(=O)c3ccccc3)cc2)no1,IC50,cells [13],21.2 µM (active)
CCOC(=O)C1=C(C)N=C(C)/C(=C(/O)OCC)C1C(=O)OCC(=O)N(C)C1CCS(=O)(=O)C1 (centres undefined),EC50,cells [2],> 350 µM (not active)
same,EC50,cells [3],> 350 µM (not active)
CCN1CCN(C2=C(Cl)C(=O)N(c3cccc(OC)c3)C2=O)CC1,IC50,[14],> 50 µM (inconclusive)
O=C1CCCN1CCCNC(=S)Nc1ccc(Nc2ccccc2)cc1,IC50,Large T antigen,18.7 µM (active)
CC(C)NC(=O)NC(=O)CSc1nnc(-c2ccccc2F)n1N,EC50,cells [2],> 350 µM (not active)
same,EC50,cells [3],> 350 µM (not active)
Cc1ccc(NC(=O)c2ccc(NCCN)c([N+](=O)[O-])c2)cc1Cl,CC50,[7],24.4 µM (active)
same,IC50,[1],> 20 µM (inactive)
COc1ccc(C(CC(=O)O)C(N)=O)cc1 (centres undefined),IC50,[14],> 100 µM (not active)
O=C(CN1CCCCC1)N1CCCc2ccccc21,EC50,cells [2],> 350 µM (not active)
same,EC50,cells [3],> 350 µM (not active)
CC(=O)Nc1nc2ccccc2n1CCOc1ccccc1,EC50,[15],11.3 µM (active)
same,EC50,Streptokinase A,> 150 µM (not active)
same,EC50,[11],15.4 µM (active)
same,EC50,[12],12.7 µM (active)
same,EC50,Streptococcus,> 150 µM (not active)
Cc1cc(N/N=C/c2cccc(Cl)c2)nc(NCc2ccccc2)n1,EC50,[11],35.3 µM (active)
same,EC50,[12],39.6 µM (active)
Cc1cccc(C(=N)NOC(=O)c2ccoc2C)c1,EC50,cells [2],> 350 µM (not active)
same,EC50,[16],3.65 µM (active)
same,EC50,[17],3.25 µM (active)
same,EC50,cells [3],7.1 µM (active)
CN(C)CCCN(C(=O)c1ccc(S(=O)(=O)N2CCCC2)cc1)c1nc2ccc(Br)cc2s1,IC50,[1],> 20 µM (inactive)
CC(=O)c1ccc(OCC(=O)Nc2ccc3c(c2)CCC3)cc1,IC50,cells [13],> 50 µM (active)
CO[C@H]1O[C@H](CBr)[C@@H](OC(=O)c2ccccc2)[C@H](O)[C@H]1O,EC50,[18],> 300 µM (not active)
same,EC50,[19],> 300 µM (not active)
O=C(O)Cc1csc(COc2ccccc2)n1,IC50,[14],> 100 µM (not active)
O=C(NC1CCCCC1)C(c1ccccc1F)N(Cc1ccco1)C(=O)Cn1nnc2ccccc21 (centres undefined),EC50,[11],16 µM (active)
same,EC50,[12],16 µM (active)
c1csc(CCNc2ncnc3sc4c(c23)CCC4)c1,EC50,[11],63.9 µM (active)
same,EC50,[12],72.7 µM (active)
same,AC50,[20],1.7 µM (active)
same,AC50,[21],7.76 µM (active)
same,AC50,[22],0.988 µM (active)
Cc1c(C(=O)Nc2ccc(S(=O)(=O)N(C)C3CCN(C)CC3)cc2)oc2ccccc12,CC50,[7],17.2 µM (active)
same,IC50,[1],> 20 µM (inactive)
CN(C)c1ccc(C=C2SC(=S)N(Cc3ccco3)C2=O)cc1,EC50,[23],3.2 µM (active)
